Source: ChEMBL document CHEMBL4813985, “Lead optimization generates selenium-containing miconazole CYP51 inhibitors with improved pharmacological profile for the treatment of fungal infections” (Eur J Med Chem, 2021)
≈ marks a conversion by molar mass, not a printed value. Calls of active or inactive are those of the source. The calls are words filed in the database; no cut-off is given here.

What was measured:
Candida albicans [1] = assay: Antifungal activity against fluconazole-resistant Candida albicans 904 assessed as inhibition of microbial growth after 24 hrs by broth microdilution method; type: functional
Candida albicans [2] = assay: Antifungal activity against fluconazole-resistant Candida albicans 632 assessed as inhibition of microbial growth after 24 hrs by broth microdilution method; type: functional
Candida albicans [3] = assay: Antifungal activity against fluconazole-resistant Candida albicans 901 assessed as inhibition of microbial growth after 24 hrs by broth microdilution method; type: functional
[4] = molecular target: T1, Lanosterol 14-alpha demethylase (Candida albicans (strain SC5314 / ATCC MYA-2876) (Yeast), UniProt P10613); assay: Inhibition of CYP51 in Candida albicans ATCC SC5314 assessed as lanosterol level at […] ug/ml after 16 hrs by GC-MS analysis (reference value: 1.7%); parameters: scale not given: the % may be the effect or the level left; conditions: candida albicans sc5314, 16 h, dose 0.125 µg/ml
[5] = molecular target: T1, Lanosterol 14-alpha demethylase; assay: Inhibition of CYP51 in Candida albicans ATCC SC5314 assessed as Eburicol level at 0.03125 ug/ml after 16 hrs by GC-MS analysis (reference value: 0%); parameters: scale not given: the % may be the effect or the level left; conditions: candida albicans sc5314, 16 h, at 0.03125 µg/mL
[6] = molecular target: T1, Lanosterol 14-alpha demethylase; assay: Inhibition of CYP51 in Candida albicans ATCC SC5314 assessed as ergosterol level at 0.5 ug/ml after 16 hrs by GC-MS analysis (reference value: 98.3%); parameters: scale not given: the % may be the effect or the level left; conditions: candida albicans sc5314, 16 h, at 0.5 µg/mL
Pichia kudriavzevii = assay: Antifungal activity against Candida krusei AS2.1045 measured after 24 hrs by broth microdilution assay; type: functional
[Candida] zeylanoides = Antifungal activity against Candida zeylanoides CMGCC2.3739 measured after 24 hrs by broth microdilution assay; type: functional; conditions: Dujonia zeylanoides
Candida albicans [7] = assay: Antifungal activity against Candida albicans ATCC SC5314 infected in mouse model of candidiasis assessed as reduction in kidney fungal burden at 0.6 mg/kg/day, ip dosed at 2 hrs post infection and dosed for 4 days; type: functional, organism-based; conditions: time 4.0 day
[8] = molecular target: T1, Lanosterol 14-alpha demethylase; assay: Inhibition of CYP51 in Candida albicans ATCC SC5314 assessed as Eburicol level at […] ug/ml after 16 hrs by GC-MS analysis (reference value: 0%); parameters: scale not given: the % may be the effect or the level left; conditions: candida albicans sc5314, 16 h, dose 0.125 µg/ml
Aspergillus fumigatus = assay: Antifungal activity against Aspergillus fumigatus CMGCC3.7795 measured after 72 hrs by broth microdilution assay; type: functional
[9] = molecular target: T1, Lanosterol 14-alpha demethylase; assay: Inhibition of CYP51 in Candida albicans ATCC SC5314 assessed as Obtusifoliol level at 8 ug/ml after 16 hrs by GC-MS analysis (reference value: 0%); parameters: scale not given: the % may be the effect or the level left; conditions: candida albicans sc5314, 16 h, at 8 µg/mL
Nakaseomyces glabratus = assay: Antifungal activity against Candida glabrata measured after 24 hrs by broth microdilution assay; type: functional
Candida albicans [10] = assay: Antifungal activity against Candida albicans CPCC400616 measured after 24 hrs by broth microdilution assay; type: functional
[11] = molecular target: T1, Lanosterol 14-alpha demethylase; assay: Inhibition of CYP51 in Candida albicans ATCC SC5314 assessed as Obtusifoliol level at 0.03125 ug/ml after 16 hrs by GC-MS analysis (reference value: 0%); parameters: scale not given: the % may be the effect or the level left; conditions: candida albicans sc5314, 16 h, at 0.03125 µg/mL
[12] = molecular target: T1, Lanosterol 14-alpha demethylase; assay: Inhibition of CYP51 in Candida albicans ATCC SC5314 assessed as ergosterol level at 0.03125 ug/ml after 16 hrs by GC-MS analysis (reference value: 98.3%); parameters: scale not given: the % may be the effect or the level left; conditions: candida albicans sc5314, 16 h, at 0.03125 µg/mL
Candida parapsilosis = assay: Antifungal activity against Candida parapsilosis ATCC 22019 measured after 24 hrs by broth microdilution assay; type: functional; conditions: Lodderomyces parapsilosis
[13] = molecular target: T1, Lanosterol 14-alpha demethylase; assay: Inhibition of CYP51 in Candida albicans ATCC SC5314 assessed as ergosterol level at 8 ug/ml after 16 hrs by GC-MS analysis (reference value: 98.3%); parameters: scale not given: the % may be the effect or the level left; conditions: candida albicans sc5314, 16 h, at 8 µg/mL
Candida albicans [14] = assay: Anti-biofilm activity in Candida albicans CPCC400616 assessed as inhibition of biofilm formation incubated for 24 hrs with 24 hrs precultured fungal suspension by XTT assay; type: functional
[15] = molecular target: T1, Lanosterol 14-alpha demethylase; assay: Inhibition of CYP51 in Candida albicans ATCC SC5314 assessed as Eburicol level at 2 ug/ml after 16 hrs by GC-MS analysis (reference value: 0%); parameters: scale not given: the % may be the effect or the level left; conditions: candida albicans sc5314, 16 h, at 2 µg/mL
Cryptococcus neoformans = assay: Antifungal activity against Cryptococcus neoformans CMGCC2.3161 measured after 72 hrs by broth microdilution assay; type: functional
[16] = molecular target: T1, Lanosterol 14-alpha demethylase; assay: Inhibition of CYP51 in Candida albicans ATCC SC5314 assessed as Eburicol level at 8 ug/ml after 16 hrs by GC-MS analysis (reference value: 0%); parameters: scale not given: the % may be the effect or the level left; conditions: candida albicans sc5314, 16 h, at 8 µg/mL
[17] = molecular target: T1, Lanosterol 14-alpha demethylase; assay: Inhibition of CYP51 in Candida albicans ATCC SC5314 assessed as Eburicol level at 0.5 ug/ml after 16 hrs by GC-MS analysis (reference value: 0%); parameters: scale not given: the % may be the effect or the level left; conditions: candida albicans sc5314, 16 h, at 0.5 µg/mL
[18] = molecular target: T1, Lanosterol 14-alpha demethylase; assay: Inhibition of CYP51 in Candida albicans ATCC SC5314 assessed as lanosterol level at 0.03125 ug/ml after 16 hrs by GC-MS analysis (reference value: 1.7%); parameters: scale not given: the % may be the effect or the level left; conditions: candida albicans sc5314, 16 h, at 0.03125 µg/mL
[19] = molecular target: T1, Lanosterol 14-alpha demethylase; assay: Inhibition of CYP51 in Candida albicans ATCC SC5314 assessed as Obtusifoliol level at 2 ug/ml after 16 hrs by GC-MS analysis (reference value: 0%); parameters: scale not given: the % may be the effect or the level left; conditions: candida albicans sc5314, 16 h, at 2 µg/mL
[20] = molecular target: T1, Lanosterol 14-alpha demethylase; assay: Inhibition of CYP51 in Candida albicans ATCC SC5314 assessed as lanosterol level at 8 ug/ml after 16 hrs by GC-MS analysis (reference value: 1.7%); parameters: scale not given: the % may be the effect or the level left; conditions: candida albicans sc5314, 16 h, at 8 µg/mL
Candida albicans [21] = assay: Antifungal activity against Candida albicans ATCC SC5314 measured after 24 hrs by broth microdilution assay; type: functional
[22] = molecular target: T1, Lanosterol 14-alpha demethylase; assay: Inhibition of CYP51 in Candida albicans ATCC SC5314 assessed as lanosterol level at 0.5 ug/ml after 16 hrs by GC-MS analysis (reference value: 1.7%); parameters: scale not given: the % may be the effect or the level left; conditions: candida albicans sc5314, 16 h, at 0.5 µg/mL
[23] = molecular target: T1, Lanosterol 14-alpha demethylase; assay: Inhibition of CYP51 in Candida albicans ATCC SC5314 assessed as ergosterol level at 2 ug/ml after 16 hrs by GC-MS analysis (reference value: 98.3%); parameters: scale not given: the % may be the effect or the level left; conditions: candida albicans sc5314, 16 h, at 2 µg/mL
Candida albicans [24] = assay: Antifungal activity against fluconazole-resistant Candida albicans CaR assessed as inhibition of microbial growth after 24 hrs by broth microdilution method; type: functional
[25] = molecular target: T1, Lanosterol 14-alpha demethylase; assay: Inhibition of CYP51 in Candida albicans ATCC SC5314 assessed as Obtusifoliol level at 0.5 ug/ml after 16 hrs by GC-MS analysis (reference value: 0%); parameters: scale not given: the % may be the effect or the level left; conditions: candida albicans sc5314, 16 h, at 0.5 µg/mL
[26] = molecular target: T1, Lanosterol 14-alpha demethylase; assay: Inhibition of CYP51 in Candida albicans ATCC SC5314 assessed as lanosterol level at 2 ug/ml after 16 hrs by GC-MS analysis (reference value: 1.7%); parameters: scale not given: the % may be the effect or the level left; conditions: candida albicans sc5314, 16 h, at 2 µg/mL
Candida albicans [27] = assay: Antifungal activity against fluconazole-resistant Candida albicans 17# assessed as inhibition of microbial growth after 24 hrs by broth microdilution method; type: functional
[28] = molecular target: T1, Lanosterol 14-alpha demethylase; assay: Inhibition of CYP51 in Candida albicans ATCC SC5314 assessed as Obtusifoliol level at […] ug/ml after 16 hrs by GC-MS analysis (reference value: 0%); parameters: scale not given: the % may be the effect or the level left; conditions: candida albicans sc5314, 16 h, dose 0.125 µg/ml
[29] = molecular target: T1, Lanosterol 14-alpha demethylase; assay: Inhibition of CYP51 in Candida albicans ATCC SC5314 assessed as ergosterol level at […] ug/ml after 16 hrs by GC-MS analysis (reference value: 98.3%); parameters: scale not given: the % may be the effect or the level left; conditions: candida albicans sc5314, 16 h, dose 0.125 µg/ml

T1 sequence (P10613 whole entry): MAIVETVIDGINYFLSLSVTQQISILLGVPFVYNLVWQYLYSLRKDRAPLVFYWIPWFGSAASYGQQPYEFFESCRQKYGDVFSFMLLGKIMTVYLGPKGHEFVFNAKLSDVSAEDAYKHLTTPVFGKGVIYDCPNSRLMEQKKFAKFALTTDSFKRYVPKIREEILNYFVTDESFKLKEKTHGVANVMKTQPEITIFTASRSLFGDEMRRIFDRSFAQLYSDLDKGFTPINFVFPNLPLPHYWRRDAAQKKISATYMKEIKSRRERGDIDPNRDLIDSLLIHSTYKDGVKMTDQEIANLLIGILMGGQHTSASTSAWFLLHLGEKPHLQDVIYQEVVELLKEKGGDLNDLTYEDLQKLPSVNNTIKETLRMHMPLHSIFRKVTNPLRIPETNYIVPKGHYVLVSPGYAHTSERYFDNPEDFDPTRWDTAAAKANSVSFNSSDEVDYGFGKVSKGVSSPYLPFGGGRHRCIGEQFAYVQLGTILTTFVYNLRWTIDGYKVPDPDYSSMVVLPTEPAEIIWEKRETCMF

OC(Cn1cncn1)(Cn1cncn1)c1ccc(F)cc1F [FLUCONAZOLE]
MIC (Candida albicans [1]): > 128 µg/mL
MIC (Candida albicans [2]): > 128 µg/mL
MIC (Candida albicans [3]): > 128 µg/mL
Activity [4]: 12.4%
Activity [5]: 2.9%
Activity [6]: 78.9%
MIC (Pichia kudriavzevii): 32 µg/mL (≈ 104 µM)
MIC ([Candida] zeylanoides): 4 µg/mL (≈ 13.1 µM)
Activity (Candida albicans [7]): Active
Activity [8]: 5.3%
MIC (Aspergillus fumigatus): > 128 µg/mL
Activity [9]: 11.4%
MIC (Nakaseomyces glabratus): 32 µg/mL (≈ 104 µM)
MIC (Candida albicans [10]): 4 µg/mL (≈ 13.1 µM)
Activity [11]: 1%
Activity [12]: 86.34%
MIC (Candida parapsilosis): 4 µg/mL (≈ 13.1 µM)
Activity [13]: 4.2%
MIC (Candida albicans [14]): > 1020 µg/mL
Activity [15]: 63.5%
MIC (Cryptococcus neoformans): 4 µg/mL (≈ 13.1 µM)
Activity [16]: 70.3%
Activity [17]: 6.7%
Activity [18]: 9.8%
Activity [19]: 9.5%
Activity [20]: 14.1%
MIC (Candida albicans [21]): 1 µg/mL (≈ 3.27 µM)
Activity [22]: 11.6%
Activity [23]: 19.8%
MIC (Candida albicans [24]): > 128 µg/mL
Activity [25]: 2.9%
Activity [26]: 7.2%
MIC (Candida albicans [27]): 128 µg/mL
Activity [28]: 1.6%
Activity [29]: 80.8%
